Patent US20100160207A1, “Feedback Prodrug” (University of Georgia Research Foundation, Inc., priority 2006, published 2010)

Key:
[1] = Self-decomposition half-time of the intermediate released from prodrug 2 by Jack Bean mannosidase, followed by 1H NMR; type: physicochemical; settings: phosphate/citrate buffer
Protocol: Next, the pH dependence of the self-fragmentation of intermediates 3 and 4 was investigated. It is well known that different organelles have different pH values. […] Golgi mannosidase II has been identified as a target for anti-metastatic therapy (Goss et al., Clin. Cancer Res. 1995, 1, 935; Elbein, FASEB J. 1991, 5, 3055), whereas inhibition of lysosomal mannosidase leads to the phenotype of lysosomal storage disease. […] Thus, compound 2 (0.4 mM) in sodium acetate buffers of different pH was treated with a large quantity (7 Units/mL) of Jack Bean α-mannosidase (JBM) to completely convert the prodrug into intermediate 4. Subsequently, the decomposition of 4 was monitored by ^1H NMR by integration of key signals of the intermediate and final product. […] The results of these experiments indicate that in a compartment such as the medial Golgi, which has a pH close to neutral, the decomposition of the intermediate will occur in minutes, which is probably fast enough for rebinding of the inhibitor.
Self-decomposition half-time measurements. A solution of compound 2 (0.08 μmol) and Jack Bean mannosidase (JBM) (1.4 Units) in deuterated 0.2 M phosphate/0.1 M citrate buffer (pH=4.0, 4.5, 5.0, 5.5, 6.0 or 6.5; 0.2 ml) was incubated at 37° C. or 25° C., and ^1H NMR spectra (600 MHz) were recorded at different time intervals. Relevant signals were integrated to determine the appearance of the intermediate 4 and the final product 6, and the decomposition rate.

[2] = biological target: T1, human lysosomal mannosidase (HLM) (Homo sapiens, UniProt O00754); experiment: Enzymatic cleavage of prodrugs by human lysosomal mannosidase monitored by 1H NMR; type: biochemical; settings: HLM 20 mU, 80 nmol compound, sodium acetate buffer pH 5.6, 37° C.
T1 sequence (O00754 50-1011): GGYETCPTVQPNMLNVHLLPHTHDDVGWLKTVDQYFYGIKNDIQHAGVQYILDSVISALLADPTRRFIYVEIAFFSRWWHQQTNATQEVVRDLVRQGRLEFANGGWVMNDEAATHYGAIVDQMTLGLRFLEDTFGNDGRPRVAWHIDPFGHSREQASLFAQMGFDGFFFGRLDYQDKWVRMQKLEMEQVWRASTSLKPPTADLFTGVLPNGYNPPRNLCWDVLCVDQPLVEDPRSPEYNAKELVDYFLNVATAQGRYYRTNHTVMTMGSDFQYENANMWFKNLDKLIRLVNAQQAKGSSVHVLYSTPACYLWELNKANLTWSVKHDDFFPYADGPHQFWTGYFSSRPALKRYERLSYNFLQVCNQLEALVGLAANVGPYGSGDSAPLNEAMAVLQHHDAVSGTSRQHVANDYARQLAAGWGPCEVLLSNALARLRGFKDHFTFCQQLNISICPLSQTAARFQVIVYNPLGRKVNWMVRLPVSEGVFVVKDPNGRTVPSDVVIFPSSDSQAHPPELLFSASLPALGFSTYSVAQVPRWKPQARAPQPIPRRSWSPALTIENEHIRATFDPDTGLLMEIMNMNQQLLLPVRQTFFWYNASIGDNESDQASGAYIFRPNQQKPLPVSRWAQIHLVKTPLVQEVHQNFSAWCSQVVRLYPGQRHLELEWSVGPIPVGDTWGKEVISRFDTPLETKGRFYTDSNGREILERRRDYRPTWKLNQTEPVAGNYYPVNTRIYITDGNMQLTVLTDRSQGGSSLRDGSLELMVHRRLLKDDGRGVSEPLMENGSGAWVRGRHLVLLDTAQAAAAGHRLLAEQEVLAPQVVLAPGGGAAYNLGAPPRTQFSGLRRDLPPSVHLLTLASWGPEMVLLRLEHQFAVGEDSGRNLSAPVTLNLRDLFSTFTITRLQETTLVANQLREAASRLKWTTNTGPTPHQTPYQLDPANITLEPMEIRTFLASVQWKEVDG
Protocol: HLM ([…]) was added to a solution of 2 (a) or 1 (b) ([…]) in a deuterated sodium acetate buffer (100 mM, pH, 5.6, 0.2 mL) and the enzymatic cleavage was monitored by ^1H NMR (600 MHz).
The enzymatic cleavage of 1 and 2 by human lysosomal mannosidase (HLM) was monitored by ^1H NMR (600 MHz) (Wilson et al., Org. Lett. 1999, 1, 443) Thus, HLM (20 mU) was added to a solution of 1 or 2 (80 nmol) dissolved in a deuterated sodium acetate buffer (100 mM, pH 5.6, 0.2 mL). The progress of the reaction was monitored by the integration of key signals of the starting material, the intermediate and final product. […] In this case, the released mannostatin A (5) inhibits HLM terminating further hydrolysis of 1. Mannostatin A is a potent inhibitor of retaining α-mannosidases (Ki=90 nM, HLM) (Li et al., Chem. Bio. Chem. 2004, 5, 1220) and thus the release of low concentrations of the active compound is sufficient to abolish enzyme activity.
Kinetic measurements. A solution of compound 1 or 2 (0.08 μmol) and human lysosomal mannosidase (HLM, 0.02 Unit) in deuterated sodium acetate buffer (0.1 M; pH 5.6; 0.2 ml) was incubated at 37° C., and ^1H NMR spectra (600 MHz) were recorded at different time intervals. Relevant signals were integrated to determine the rate of enzymatic hydrolysis, and the appearance of the intermediate and the final product.

[3] = test system: α-glucosidase; experiment: Negative enzyme control experiment, α-glucosidase; type: biochemical; settings: 0.1 Unit, MES buffer pH 6.8, 37° C., 20 h
Protocol: (§1) Compounds 1 and 2 were subjected to an α-glucosidase, α-fucosidase and α-galactosidase.
(§2) Negative enzyme control experiments. A solution of compound 1 or 2 (0.004 mmol) and α-glucosidase, α-galactosidase or α-L-fucosidase (0.1 Unit) in MES buffer (0.05 M; pH 6.8 for α-glucosidase, pH 6.5 for α-galactosidase or pH 5.5 for α-L-fucosidase; 1 ml) was incubated at 37° C. for 20 h, after which the reaction mixture was freezing-dried, and the solid residue was analyzed by ^1H NMR spectrometry and mass spectrometry.

[4] = test system: α-L-fucosidase; experiment: Negative enzyme control experiment, α-L-fucosidase; type: biochemical; settings: 0.1 Unit, MES buffer pH 5.5, 37° C., 20 h
Protocol: as §1, §2

[5] = test system: α-galactosidase; experiment: Negative enzyme control experiment, α-galactosidase; type: biochemical; settings: 0.1 Unit, MES buffer pH 6.5, 37° C., 20 h
Protocol: as §1, §2

[6] = Stability measurements in deuterated sodium acetate buffer by 1H NMR; type: physicochemical; settings: 0.4 mM, sodium acetate buffer pH 4.0, 37° C., 6 days
Protocol: Stability measurements. A solution of compound 1 or 2 (0.4 mM) in deuterated sodium acetate buffer (100 mM; pH 4.0; 0.2 ml) in a NMR tube was incubated at 37° C. for 6 days. ^1H NMR spectra were recorded every day.

[7] = biological target: T1, human lysosomal mannosidase (HLM); experiment: Inhibition of human lysosomal mannosidase; type: biochemical
[8] = test system: MDAY-D2 lymphoma cells; experiment: Inhibition of cell surface polylactosamine biosynthesis (L-PHA lectin blot); type: cell-based; settings: MDAY-D2 cells cultured for two days
Protocol: MDAY-D2 cells were cultured for 2 days in the absence (control) or presence of different concentrations of compounds 14 (a) or 15 (b). Cellular proteins (10 μg) were subjected to SDS-PAGE and polylactosamine was visualized using a fluorescein labeled L-PHA lectin (upper part figure). Fluorescence bands were scanned by laser beam densitometry, and the relative intensity depicted (lower part figure).
It is known that the metastatic MDAY-D2 lymphoma cell line over-expresses the enzyme N-acetyl glucosaminyltransferase V (GnTV) (Goss et al., Clin. Cancer Res. 1995, 1, 935). […] Subsequently, the presence of polylactosamine linked to proteins was determined by analyzing cell lysates by Western blotting using a fluorescein labeled PHA lectin (Dennis et al., Cancer Res. 1990, 50, 1867).
Cell maintenance. […] New batches of frozen cell stock were grown up every 2 months and growth morphology was evaluated.
Inhibition of cell surface polylactosamine biosynthesis. […] Protein concentrations were determined using the BCA reagent (Pierce) and cellular proteins (10 μg) were separated by SDS-PAGE using 4-20% linear gradient polyacrylamide gels (Bio-Rad). […] Fluorescence bands were imaged at 495 nm (absorbance)/520 nm (emission) and the intensity scanned by laser beam densitometry (Typhoon 9410 Imager; Amersham Biosciences).

[9] = biological target: T1, human lysosomal mannosidase (HLM); settings: Li et al., Chem. Bio. Chem. 2004; cited from earlier work

For `O=C(NC1C(O)C(O)C(O)C1O)OCc1ccc(O[C@H]2O[C@H](CO)[C@@H](O)[C@H](O)[C@@H]2O)cc1` (stereo partly drawn) [Compound 2, (1,4/2,3,5)-5-[4-(α-D-mannopyranosyloxy)-benzyloxycarbonyl]amino-1,2,3,4-cyclopentanetetrol], the half-life of self-fragmentation ([1]; pH 4.0, 25° C.) was 46.67 h, the half-life of self-fragmentation ([1]; pH 4.0, 37° C.) was 8 h and the half-life of self-fragmentation ([1]; pH 4.5, 37° C.) was 4.5 h. The half-life of self-fragmentation ([1]; pH 5.0, 37° C.) was 1.67 h, the half-life of self-fragmentation ([1]; pH 5.5, 37° C.) was 0.75 h and the half-life of self-fragmentation ([1]; pH 6.0, 37° C.) was 0.267 h. For the same molecule, the half-life of self-fragmentation ([1]; pH 6.5, 25° C.) was 0.75 h, the half-life of self-fragmentation ([1]; pH 6.5, 37° C.) was 0.15 h and the “enzymatic hydrolysis of the prodrug by HLM” value [2] was “progressed to completion”. The “decomposition by α-glucosidase” value [3] was “No decomposition of product was observed”, the “decomposition by α-L-fucosidase” value [4] was “No decomposition of product was observed” and the “decomposition by α-galactosidase” value [5] was “No decomposition of product was observed”. The decomposition in buffer [6] was “No decomposition of product was observed”.
For `NC1C(O)C(O)C(O)C1O` (centres unmarked) [Compound 6, aminocyclopentitetrol], the “inhibition of HLM” value [7] was “not an inhibitor of HLM”.
In the case of `CSC1C(NC(=O)OCc2ccc(O[C@H]3O[C@H](COC(C)=O)[C@@H](OC(C)=O)[C@H](OC(C)=O)[C@@H]3OC(C)=O)cc2)C(OC(C)=O)C(OC(C)=O)C1OC(C)=O` (stereo partly drawn) [Compound 14, 1D-(1,2,3,4/5)-4-[4-(2,3,4,6-tetra-O-acetyl-α-D-mannopyranosyloxy)-benzyloxycarbonyl]amino-1,2,3-tri-O-acetyl-5-(methylsulfanyl)cyclopentane-1,2,3-triol], the “reduction in fluorescein labeling (polylactosamine)” value ([8]; 1 μM) is reported as 50%.
With `CC(=O)OC[C@H]1O[C@H](Oc2ccc(COC(=O)NC3C(OC(C)=O)C(OC(C)=O)C(OC(C)=O)C3OC(C)=O)cc2)[C@@H](OC(C)=O)[C@@H](OC(C)=O)[C@@H]1OC(C)=O` (stereo partly drawn) [Compound 15, (1,4/2,3,5)-5-[4-(2,3,4,6-tetra-O-acetyl-α-D-mannopyranosyloxy)-benzyloxycarbonyl]amino-1,2,3,4-tetra-O-acetyl-1,2,3,4-cyclopentanetetrol] the “inhibitory activity on polylactosamine formation” value ([8]; 0.1-100 μM) was “did not display any inhibitory activity”.
In the case of `CS[C@@H]1[C@@H](N)[C@@H](O)[C@@H](O)[C@H]1O` [Mannostatin A, mannostatin A], the Ki [9] is listed as 0.09 µM.
